The values that follow come from patent US5830434A, “Methods of treating non-insulin dependent diabetes mellitus with pancreatic polypeptide” (Medical University of South Carolina Foundation for …, priority 1997, dated 1998).

One test concerns adenylyl cyclase. In words: Adenylyl cyclase assay in liver plasma membranes. The settings on record: for effect of PP treatment on efficacy of glucagon in activating adenylyl cyclase: PP 200 μg/day/kg s.c. five days. In kind it is biochemical, Zucker rat.
Another test deals with Gs α. In words: Western blot assay of Gs α in liver plasma membranes. The class given is in vivo, Zucker rat. The settings on record: PP 200 μg/day/kg s.c. five days. The protocol: (§1) Experimental Animal Protocol. Lean (+/?) and fatty (fa/fa) Zucker rats were obtained from Harlan Labs at seven weeks of age and randomly assigned to two groups within each phenotype. One group was injected subcutaneously with PP (Peninsula Labs (Belmont, Calif.) (200 μg/day/kg body weight) in a vehicle of physiological saline (0.9% w/v) while the other group was injected with only vehicle. The two groups within each phenotype received their respective treatments for five days, after which the animals were weighed and sacrificed following an overnight fast. Blood samples were obtained from each animal for assays of plasma glucose and insulin according to standard methods known in the art (3) and the pancreas was removed and subjected to an acid-ethanol extraction (0.1N HCl, 70% ethanol) as described previously for assay of pancreatic insulin (3). […]
Purified liver plasma membranes were solubilized on ice for one hour in 20 mM Tris, 1 mM EDTA, 1 mM DTT, 100 mM NaCl and 0.9% sodium cholate (pH 8.0). […] Following the procedure of Mumby (20), the PVDF membranes were probed with Gs α IgG and the bands were detected with ^125 I-labeled goat anti-rabbit IgG (1.0×10^6 cpm/ml). […]
In performing the Western blot assays, protein was carefully measured in the liver plasma membrane supernatant to assure that equal amounts of soluble membrane protein would be loaded from the respective treatment groups.
(Immunoblotting shows a protein as a band on a membrane.)

Test [1] relates to G proteins migrating at 41 kDa in liver plasma membranes. In words: Receptor dependent labeling of hepatocyte G proteins with AA-[32P]GTP. In kind it is biochemical. The protocol:
Receptor dependent labeling of hepatocyte G proteins with 4-Azidoanilido-α[^32 P]GTP. The protocol for labeling G proteins with AA-GTP was as described previously (11). The AA-[32P]-GTP used in the labeling experiments was prepared according to the protocol of Offermans et al. (6,7).
The purpose of these labeling studies was to determine whether PP stimulated the binding of AA-[^32 P]GTP to proteins migrating at the known molecular weight of G proteins in liver plasma membranes. […] Incubation of liver plasma membranes with 1 μM angiotensin II produced a two-fold increase in labeling of G protein(s) migrating at 41 kDa on SDS PAGE gels The 41 kDa band represents the pertussis-sensitive G protein family that is expressed in hepatocytes and which couples to angiotensin II receptors.

Test [2] deals with T1, glucagon receptor (Rattus norvegicus, UniProt P30082).
T1 construct: from tissue; host or cells: liver plasma membranes of lean and fatty (fa/fa) Zucker rats
Kind of test: Glucagon competition binding in liver plasma membranes (50 pM labeled glucagon, with and without GTP). Details: species or system Zucker rat.
Protocol: Experimental Animal Protocol. Lean (+/?) and fatty (fa/fa) Zucker rats were obtained from Harlan Labs at seven weeks of age and randomly assigned to two groups within each phenotype. One group was injected subcutaneously with PP (Peninsula Labs (Belmont, Calif.) (200 μg/day/kg body weight) in a vehicle of physiological saline (0.9% w/v) while the other group was injected with only vehicle. The two groups within each phenotype received their respective treatments for five days, after which the animals were weighed and sacrificed following an overnight fast. Blood samples were obtained from each animal for assays of plasma glucose and insulin according to standard methods known in the art (3) and the pancreas was removed and subjected to an acid-ethanol extraction (0.1N HCl, 70% ethanol) as described previously for assay of pancreatic insulin (3). Livers were removed into ice cold balanced salt solution. […]

Test [3] has as its target T1, glucagon receptor. In words: Glucagon saturation binding in liver plasma membranes. Details: species or system Zucker rat. As to the method:
as §1, with “(3). Livers were removed into ice cold balanced salt solution.” for “(3).”
Binding curves were analyzed using nonlinear least squares.

T1 sequence (P30082 27-485): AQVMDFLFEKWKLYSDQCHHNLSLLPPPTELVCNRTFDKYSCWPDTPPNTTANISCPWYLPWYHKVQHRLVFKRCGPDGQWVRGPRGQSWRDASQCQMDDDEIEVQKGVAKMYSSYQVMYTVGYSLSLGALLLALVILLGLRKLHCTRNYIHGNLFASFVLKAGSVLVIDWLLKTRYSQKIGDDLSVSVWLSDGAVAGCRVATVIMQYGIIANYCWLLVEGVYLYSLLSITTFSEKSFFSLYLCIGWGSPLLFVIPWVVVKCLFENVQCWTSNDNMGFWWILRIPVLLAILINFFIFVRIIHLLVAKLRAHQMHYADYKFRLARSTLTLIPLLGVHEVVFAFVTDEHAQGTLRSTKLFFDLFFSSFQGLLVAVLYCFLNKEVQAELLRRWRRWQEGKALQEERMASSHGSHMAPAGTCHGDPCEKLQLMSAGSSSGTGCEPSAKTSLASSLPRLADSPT
Protocol for adenylyl cyclase: Lean (+/?) and fatty (fa/fa) Zucker rats were obtained from Harlan Labs at seven weeks of age and randomly assigned to two groups within each phenotype. One group was injected subcutaneously with PP (Peninsula Labs (Belmont, Calif.) (200 μg/day/kg body weight) in a vehicle of physiological saline (0.9% w/v) while the other group was injected with only vehicle. The two groups within each phenotype received their respective treatments for five days, after which the animals were weighed and sacrificed following an overnight fast. Blood samples were obtained from each animal for assays of plasma glucose and insulin according to standard methods known in the art (3) and the pancreas was removed and subjected to an acid-ethanol extraction (0.1N HCl, 70% ethanol) as described previously for assay of pancreatic insulin (3). Livers were removed into ice cold balanced salt solution. After cooling, each liver was cleaned of connective tissue and minced into 2-4 mm pieces with scissors in 5 ml of ice-cold homogenizing buffer (50 mM Hepes, pH 6.5, 5 mM EDTA, 3 mM orthophenanthroline, 0.2 μM iodoacetic acid, 1 mM PMSF, 25 μm leupeptin (3). The minced liver was homogenized in a 40 ml Dounce homogenizer in 25 ml of homogenizing buffer with 25 strokes of the loose pestle and three strokes of the tight pestle. The homogenate was centrifuged for five minutes at 3000×g. The supernatant was removed and centrifuged for 20 min at 16,000×g. The resulting pellet was retained, resuspended in phosphate buffered saline (PBS) containing 5 mM MgCl2 and homogenized with five strokes of the Dounce homogenizer. After centrifuging for 20 min at 16,000×g, the membrane pellet was resuspended in homogenizing buffer containing 0.1% bovine serum albumin (BSA). Aliquots were frozen in liquid nitrogen and stored at -80° C.
Adenylyl cyclase activity leading to the production of cAMP was determined in liver plasma membranes by methods previously described (2, 4). […] Cyclic AMP formed in the reaction was measured in the supernatant by radioimmunoassay according to methods described previously (2, 4). […]

As to `CC[C@H](C)[C@H](NC(=O)[C@H](Cc1ccc(O)cc1)NC(=O)[C@H](CCCNC(=N)N)NC(=O)[C@H](CCCNC(=N)N)NC(=O)[C@H](CC(C)C)NC(=O)[C@H](CC(=O)O)NC(=O)[C@H](C)NC(=O)[C@H](C)NC(=O)[C@H](Cc1ccc(O)cc1)NC(=O)[C@H](CCC(N)=O)NC(=O)[C@H](C)NC(=O)[C@H](CCSC)NC(=O)[C@H](CCC(N)=O)NC(=O)[C@H](CCC(=O)O)NC(=O)[C@@H]1CCCN1C(=O)[C@@H](NC(=O)[C@H](C)NC(=O)[C@H](CC(N)=O)NC(=O)[C@H](CC(=O)O)NC(=O)CNC(=O)[C@@H]1CCCN1C(=O)[C@H](Cc1ccc(O)cc1)NC(=O)[C@@H](NC(=O)[C@@H]1CCCN1C(=O)[C@H](CCC(=O)O)NC(=O)[C@H](CC(C)C)NC(=O)[C@@H]1CCCN1C(=O)[C@H](C)N)C(C)C)[C@@H](C)O)C(=O)N[C@@H](CC(N)=O)C(=O)N[C@@H](CCSC)C(=O)N[C@@H](CC(C)C)C(=O)N[C@H](C(=O)N[C@@H](CCCNC(=N)N)C(=O)N1CCC[C@H]1C(=O)N[C@@H](CCCNC(=N)N)C(=O)N[C@@H](Cc1ccc(O)cc1)C(N)=O)[C@@H](C)O` [PP], the “effect of PP treatment on efficacy of glucagon in activating adenylyl cyclase” value is “significant decrease in the efficacy of glucagon” in the test on adenylyl cyclase (fatty Zucker rats) and “did not modify the efficacy of glucagon” in the test on adenylyl cyclase (lean Zucker rats). The “maximal adenylyl cyclase activation by glucagon” value in the test with adenylyl cyclase (second replicate, PP treated fatty Zucker rats (200 μg/day/kg s.c., five days)) came out at 60.2±1.5 pmol cAMP/min/mg. The results for the “effect of PP treatment on hepatic Gs α expression” value with Gs α (fatty Zucker rats) and with Gs α (lean Zucker rats) were “decreased hepatic expression of Gs α to levels similar to that seen in lean rats” and “not altered”, respectively. Besides, in test [1], the “labeling of G proteins migrating at 41 kDa, result in words” value is recorded as “concentration-dependent increase in labeling”. The “maximal increase in AA-[32P]GTP labeling of G proteins migrating at 41 kDa” value in test [1] (maximal effect) is “approximately two-fold”. Also, the “percentage of high affinity glucagon binding sites” value on glucagon receptor [2] (fatty Zucker rats treated with PP for five days) came to 71%; on glucagon receptor [2] (lean Zucker rats treated with PP for five days), 55%. For the same compound, at glucagon receptor [3] (either phenotype (lean and fatty Zucker rats), PP 200 μg/day/kg s.c. five days), the “effect of PP treatment on total glucagon binding sites” value is “failed to alter total glucagon binding sites”. In addition, the “Bmax, total glucagon binding sites” value on glucagon receptor [3] (liver membranes of fatty Zucker rats treated with PP 200 μg/day/kg s.c. for five days) turned out to be 569 ± 45 fmol/mg.
Turning to “angiotensin II (DRVYIHPF; Angiotensin-2; UniProt P01019 25-32, looked up) [positive control that couples to pertussis-sensitive G proteins, reference compound]”, in test [1] (1 μM), the “increase in AA-[32P]GTP labeling of G protein(s) migrating at 41 kDa” value is “two-fold”.
